Patent US20250059205A1, “Heterocyclic Compounds and Methods of Use” (AMGEN INC., priority 2021, published 2025)

Tests used:
[1] = target: His-tagged KRAS G12D protein (Homo sapiens, UniProt P01116, G12D); assay: KRAS G12D TR-FRET Assay; type: binding
[2] = target: GDP-bound KRAS protein (aa 1-169), containing both G12D and C118A amino acid substitutions (Homo sapiens, UniProt P01116, C118A/G12D); assay: KRAS G12D Coupled Nucleotide Exchange Assay; type: biochemical; settings: 2 h compound pre-incubation
Sequence of GDP-bound KRAS protein (aa 1-169), containing both G12D and C118A amino acid substitutions (P01116 1-169 isoform P01116-2 G12D/C118A): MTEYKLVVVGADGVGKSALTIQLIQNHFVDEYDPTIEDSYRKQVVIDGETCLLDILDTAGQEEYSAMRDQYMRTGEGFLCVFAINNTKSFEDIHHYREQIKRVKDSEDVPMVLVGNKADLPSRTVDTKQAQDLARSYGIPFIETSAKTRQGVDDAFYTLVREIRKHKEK
Protocol: Following compound pre-incubation, purified SOS protein (aa 564-1049) and GTP (Roche 10106399001) were added to the assay wells and incubated for an additional 30 min. […] The assay plates were then read on a PerkinElmer EnVision Multilabel Reader, using AlphaScreen® technology, and data were analyzed using a 4-parameter logistic model to calculate IC50 values.

[3] = tested on: Phosphorylation of ERK1/2 in A-427 cells; assay: Phospho-ERK1/2 MSD Assay (A-427 cells); type: cell-based; settings: Homo sapiens, A-427, 2 h, 2 h treatment, read-out: p-ERK (A427 cells) IC50
Method in brief: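 ERK1/2 phosphorylation measured by Meso Scale whole-cell lysate assay after A-427 cells were exposed to a titration of compound for 2 h at 37 °C.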

[4] = tested on: Phosphorylation of ERK1/2 in AsPC-1 cells; assay: Phospho-ERK1/2 MSD Assay (AsPC-1 cells); type: cell-based; settings: Homo sapiens, ASPC1, 2 h, 2 hours treatment, read-out: p-ERK (AsPC-1 cells) IC50
Method in brief: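 Read-out: MSD electrochemiluminescent detection of phosphorylated ERK1/2 in whole-cell lysates, fitted to a 4-parameter logistic curve for IC50. Prior to lysis, AsPC-1 cells (25,000 per well) received a 2 h compound dose-response at 37 °C.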

Sequence of His-tagged KRAS G12D protein (P01116 1-188 isoform P01116-2 G12D): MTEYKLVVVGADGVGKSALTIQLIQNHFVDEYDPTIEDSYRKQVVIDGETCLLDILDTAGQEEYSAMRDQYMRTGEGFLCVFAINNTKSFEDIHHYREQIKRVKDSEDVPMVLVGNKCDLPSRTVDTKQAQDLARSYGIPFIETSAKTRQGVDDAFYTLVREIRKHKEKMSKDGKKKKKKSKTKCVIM

SMILES	IC50 [1] [nM]	Avg 2 h Coupled Exchange IC50 [2] [nM]	IC50 [3] [nM]	IC50 [4] [nM]
Nc1cc(Cl)c(C(F)(F)F)c(-c2ccc3c(N4C[C@H]5CC[C@@H](C4)N5)nc(OC[C@@]45CCCN4C[C@H](F)C5)nc3c2F)n1 [Example 228, 6-(4-((1R,5S)-3,8-Diazabicyclo[3.2.1]octan-3-yl)-8-fluoro-2-(((2R,7aS)-2-fluorotetrahydro-1H-pyrrolizin-7a(5H)-yl)methoxy)quinazolin-7-yl)-4-chloro-5-(trifluoromethyl)pyridin-2-amine]	2	2	77	302
Nc1ccc(C(F)(F)F)c(-c2ccc3c(N4C[C@H]5CC[C@@H](C4)N5)nc(OC[C@@]45CCCN4C[C@H](F)C5)nc3c2F)n1 [Example 223, 6-(4-((1R,5S)-3,8-diazabicyclo[3.2.1]octan-3-yl)-8-fluoro-2-(((2R,7aS)-2-fluorotetrahydro-1H-pyrrolizin-7a(5H)-yl)methoxy)quinazolin-7-yl)-5-(trifluoromethyl) pyridin-2-amine]	44	15	894	3030
CCc1c(F)ccc2cc(O)cc(-c3ccc4c(N5C[C@H]6CC[C@@H](C5)N6)nc(OC[C@@]56CCCN5C[C@H](F)C6)nc4c3F)c12 [Example 87, 4-(4-((1R,5S)-3,8-diazabicyclo[3.2. 1]octan-3-yl)-8-fluoro-2-(((2R,7aS)-2-fluorotetrahydro-1H-pyrrolizin-7a(5H)-yl)methoxy)quinazolin-7-yl)-5-ethyl-6-fluoronaphthalen-2-ol]	7	10	6	16
Oc1cc(-c2cc3nc(OC[C@@]45CCCN4C[C@H](F)C5)nc(N4C[C@H]5CC[C@@H](C4)N5)c3cc2F)c2c(Cl)cccc2c1 [Example 85, 4-(4-((1R,5S)-3,8-diazabicyclo[3.2. 1]octan-3-yl)-6-fluoro-2-(((2R,7aS)-2-fluorotetrahydro-1H-pyrrolizin-7a(5H)-yl)methoxy)quinazolin-7-yl)-5-chloronaphthalen-2-ol]	4	1	64	273
CCc1cccc2cc(O)cc(-c3c(F)cc4c(N5C[C@H]6CC[C@@H](C5)N6)nc(OC[C@@]56CCCN5C[C@H](F)C6)nc4c3F)c12 [Example 147, 4-(4-((1R,5S)-3,8-diazabicyclo[3.2.1]octan-3-yl)-6,8-difluoro-2-(((2R,7aS)-2-fluorotetrahydro-1H-pyrrolizin-7a(5H)-yl)methoxy)quinazolin-7-yl)-5-ethylnaphthalen-2-ol]	3	2	3	25
Nc1ccc(C2CC2)c(-c2c(F)cc3c(N4C[C@@H]5CC[C@H]4CN5)nc(OC[C@@]45CCCN4C[C@H](F)C5)nc3c2F)c1 [Example 115, 3-(4-((1S,4S)-2,5-diazabicyclo[2.2.2]octan-2-yl)-6,8-difluoro-2-(((2R,7aS)-2-fluorotetrahydro-1H-pyrrolizin-7a(5H)-yl)methoxy)quinazolin-7-yl)-4-cyclopropylaniline]	32	23	2740	2790
Oc1cc(-c2c(F)cc3c(N4C[C@H]5C[C@@H](C4)N5)nc(OCC45CCCN4CC(F)(F)C5)nc3c2F)c2ccccc2c1 (stereo partly drawn) [Example 20, 4-(4-((1R,5S)-3,6-diazabicyclo[3.1. 1]heptan-3-yl)-2-((2,2-difluorotetrahydro-1H-pyrrolizin-7a(5H)-yl)methoxy)-6,8-difluoroquinazolin-7-yl)naphthalen-2-ol]	87	40	7280	5560
